According to patent US6372740B1, “2-aryl-8-oxodihydropurine derivative, process for the producing the same, medicinal compositions containing the same, and intermediates thereof” (Dainippon Pharmaceutical Co., Ltd., priority 1997, dated 2002):
pIC50: −log10 of the molar value.

Assays:
BZω3 receptor = biological target: T1, BZω3 receptor (Rattus norvegicus, UniProt P16257); experiment: BZω3 (peripheral) benzodiazepine receptor binding assay, [3H] 4'-chlorodiazepam (Ro 5-4864); conditions: rat kidney membrane, [3H] Ro 5-4864 0.5 nM, 150 minutes at 0° C.; read-out: ω3 IC50
T1 construct: from tissue; host or cells: rat (Wistar) kidney membrane fraction
Method: Experiment 1: Central (ω1,ω2) and Peripheral (ω3) Benzodiazepine Receptor Binding Assays
BZω1 and BZω2 receptor binding assays and the preparation of receptor membrane fractions therefor were carried out according to the method of Stephens, D. N. et al. [cf., J. Pharmacol. Exp. Ther., 253, 334-343 (1990)], and BZω3 receptor binding assay and the preparation of receptor membrane fraction therefor were done according to the method of Schoemaker, H. [cf, J. Pharmacol. Exp. Ther., 225, 61-69 (1983)] each with slight modification.
Receptor membrane fractions for ω1, ω2 and ω3 were prepared from the cerebellum (ω1), spinal cord (ω2) or kidney (ω3) in 7-8 week old male rats of Wistar strain, respectively, by the procedure described below.
After the cerebellum or spinal cord was homogenized with 20 volumes of ice-cold 50 mM Tris-citrate buffer (pH 7.1), the homogenate was centrifuged for 15 minutes at 40,000 g. The pellet obtained was washed 4 times by the same procedure, and frozen and stored for 24 hours at −60° C. The resulting pellet, after being thawed, washed with the buffer and centrifuged, was suspended in the buffer I for the binding assay (50 mM Tris-HCl buffer containing 120 mM NaCl, 5 mM KCl, 2 mM CaCl2 and 1 mM MgCl2; pH 7.4) and the suspension thus obtained (containing 1 g wet tissue/40 ml) was used for the BZω1 and BZω2receptor binding assays. On the other hand, the kidney was homogenized with 20 volumes of the ice-cold buffer II for the binding assay (50 mM Na-K phosphate buffer containing 100 mM NaCl; pH 7.4), and the mixture was filtered through 4 sheets of gauze, and centrifuged for 20 minutes at 40,000 g. The pellet obtained was suspended in the buffer II and the suspension (containing 1 g wet tissue/100 ml) was used for the binding assay as BZω3 receptor membrane source.
[^3H] Flumazenil (Ro 15-1788) (final concentration: 0.3 nM for ω1, and 1 nM for ω2) and flunitrazepam (final concentration: 10 μM) were used for the BZω1 or BZω2 receptor binding assays as the isotope-labeled and unlabeled ligands, respectively. For the BZω3 receptor binding assay, [^3H] 4′-chlorodiazepam (7-chloro-1,3-dihydro-1-methyl-5-(4-chlorophenyl)-2H-1,4-diazepin-2-one) (Ro 5-4864) (final concentration: 0.5 nM) and diazepam (final concentration: 100 μM) were used as the isotope-labeled and unlabeled ligands, respectively. Incubation was performed for 30 minutes at 37° C. in the BZω1 or BZω2 receptor binding assays, and for 150 minutes at 0° C. in the BZω3 receptor binding assay. The BZω1 or BZω2 receptor binding assays were carried out in the presence of bicuculline (final concentration: 100 μM).
The binding assay was performed by the following procedure. After adding each test compound at certain known concentrations, a [^3H] ligand, and the buffer I or II to each test tube, each assay was started by addition of membrane preparation (total volume of 1 ml). After incubation, the assay was terminated by filtration with suction through a Whatman GF/B glass fiber filter using a cell harvester (Brandel, USA). The filters were rapidly washed 3 times with 5 ml of ice-cold 50 mM Tris-HCl buffer (pH 7.7) for ω1 and ω2, or the buffer II for ω3, and transferred to scintillation vials containing 10 ml liquid scintillation cocktail (ACS-II, Amersham, USA). After being allowed to stand for a specific period, retained radioactivity was counted by a liquid scintillation spectrometer. Specific binding of [^3H] ligands was calculated as the difference between amounts of radioactivity bound in the presence and absence of excess unlabeled ligands. The concentration of the test compounds causing 50% inhibition of specific binding of the [3H] ligand (IC50) was determined by probit analysis.

[1] = system: mice (isoniazid-induced clonic convulsion); experiment: Isoniazid-induced clonic convulsion test (anti-convulsant effect); type: in vivo, mouse; conditions: male Std-ddY mice, oral, 30 minutes before isoniazid 200 mg/kg s.c.; dose prolonging onset time by 25%
Excerpt: Experiment 3: Isoniazid-induced Clonic Convulsion Test (Anti-convulsant Effect)
Isoniazid inhibits glutamate decarboxylase that catalyzes GABA biosynthesis, decrease brain GABA levels, and induces clonic convulsion. According to the method of Auta, J. et al. [cf., J. Pharmacol. Exp. Ther., 265, 649-656 (1993)] with slight modification, antagonistic effects of the test compounds on isoniazid-induced clonic convulsion were examined. […] Such drugs are BZ receptor agonists represented by diazepam, neurosteroids such as allopregnanolone, allotetrahydro-deoxycorticosterone (THDOC) and BZω3 receptor agonists, which enhance the synthesis of neurosteroids.
Male mice of Std-ddY strain weighing 22-24 g were used in a group of 6. Thirty minutes after oral administration of the test compounds, mice were injected with isoniazid (200 mg/kg) subcutaneously, and immediately thereafter, the mice were placed individually in plastic observation cages. The onset time of clonic convulsion was measured (cut-off time: 90 minutes). The latency in the control group was about 40 minutes.
Anti-isoniazid effect of the test compounds was expressed by the dose, which prolonged the onset time by 25% compared to that in the vehicle group (ED25). The ED25 value was calculated according to the Probit method.

[2] = system: mice (stay in light compartment); experiment: Light and dark box test (anti-anxiety effect); type: in vivo; conditions: Mus musculus, po, 0.5 h, male Std-ddY mice, 30 minutes before test, Dunnett test 5%, read-out: Anti-anxiety effect MED (minimum effective dose)
Excerpt: Experiment 2: Light and Dark Box Test (Anti-anxiety Effect)
Anti-anxiety effect of test compounds was examined in a box with light and dark compartments according to the method of Crawley, J. and Goodwin, F. K. [cf., Pharmacol. Biochem. Behav., 13, 167-170 (1980)] with slight modification.
Light and dark box test is a useful, simple and handy method for behaviorally and pharmacologically examining anti-anxiety effect of the drugs, by utilizing the habit of rodents such as mice and rats, etc. which prefer to stay in a dark place, and regarding as positive drug effect the increase of the relative stay of the animals in the light compartment which is an uncomfortable place for the animals. A number of drugs such as cholecystokinin B type receptor antagonists and benzodiazepine drugs, show positive effect in this test.
Light and dark box test was carried out using the test box device (35×17×15 cm) which comprises: a light compartment (20×17×15 cm) consisting of transparent acrylic plates and highly illuminated by an incandescent lamp (1,700 lux); a dark compartment (15×17×15 cm) being made of black acrylic plates connected to the light compartment; and at the boundary of compartments, an opening (4.4×5.0 cm) in which mice can go through freely between two compartments.
Male mice of Std-ddY strain weighing 25-30 g were used in a group of 10. Each trial was started by placing a mouse in the center of the light compartment 30 minutes after oral administration of a test compound, and the time spent by the mouse in the light compartment during a 5 minute observation period was measured, and the rate of the stay of mice in the light compartment to the whole time spent in the experiment was calculated (rate of light compartment stay, %).
The anti-anxiety effect of the test compound was represented by the minimum effective dose (MED) at which the increasing rate of the relative stay in the light compartment was regarded as statistically significant (Dunnett test, significance level: 5%). 4.

mice (lethality) = experiment: Acute toxicity; type: in vivo, mouse; conditions: male Std-ddY mice, oral 2000 mg/kg, observed for 7 days
Method: Experiment 4: Acute Toxicity
Male mice of Std-ddY strain weighing 25-30 g were used in a group of 10 animals for examining on the compound of Example 1. A test compound was suspended in 0.5% tragacanth and administered orally to the mice at a dose of 2000 mg/kg.

CCCN(CCC)C(=O)Cn1c(=O)n(CC)c2cnc(-c3ccccc3)nc21 [Example 107, 7-ethyl-7,8-dihydro-8-oxo-2-phenyl-N,N-dipropyl-9H-purin-9-acetamide]
pIC50 (BZω3 receptor): 9.18 | Anti-convulsant effect ED25 [1]: 33.0 mg/kg | minimal effective dose [2]: 1 to 3 µg/kg | melting point: 98 to 99 °C

CCCN(CCC)C(=O)Cn1c(=O)n(C)c2cnc(-c3ccc(Cl)cc3)nc21 [Example 112]
pIC50 (BZω3 receptor): 9.14 | Anti-convulsant effect ED25 [1]: 73.6 mg/kg | melting point: 135 to 137 °C

CCCN(CCC)C(=O)Cn1c(=O)n(C)c2cnc(-c3ccccc3)nc21 [Example 106, 7,8-dihydro-7-methyl-8-oxo-2-phenyl-N,N-dipropyl-9H-purin-9-acetamide]
pIC50 (BZω3 receptor): 8.92 | Anti-convulsant effect ED25 [1]: 100 mg/kg | minimal effective dose [2]: 1 to 3 µg/kg

CCN(C(=O)Cn1c(=O)n(C)c2nc(-c3ccccc3)ncc21)c1ccccc1 [Example 1, N-ethyl-8,9-dihydro-9-methyl-8-oxo-2-phenyl-N-phenyl-7H-purin-7-acetamide]
pIC50 (BZω3 receptor): 8.70 | minimal effective dose [2]: 1 to 3 µg/kg | lethality (mice (lethality)): no lethality
